{"source": "ChEMBL document CHEMBL2151028", "about": "“Analysis of the mushroom nephrotoxin orellanine and its glucosides” (J Nat Prod, 2012)", "format_in_all_cases": "organism-based", "conditions_in_all_cases": "in vivo", "key": {"[1]": {"test": "Acute toxicity in po dosed mouse"}, "[2]": {"test": "Acute toxicity in ip dosed rat"}, "Homo sapiens": {"organism": "Homo sapiens", "test": "Acute toxicity in human"}}}
{"smiles": "[O-][n+]1ccc(O)c(O)c1-c1c(O)c(O)cc[n+]1[O-]", "note": "[ORELLANINE]", "values": [{"measurement": "LD50", "setting": "[1]", "result": 12, "unit": "mg/kg"}, {"measurement": "LD50", "setting": "[2]", "result": 5, "unit": "mg/kg"}, {"measurement": "LD50", "setting": "Homo sapiens", "result": 29, "unit": "g"}]}
